Experimental data: publication PMC12015462, “Prioritization of novel anti-infective stilbene derivatives by combining metabolomic data organization and a stringent 3R-infection model in a knowledge graph” (RSC Advances, 2025)
Like-named read-outs stand apart in the source and are kept apart here.

Assays:
Format in all cases: cell-based
[1] = system: Mycobacterium marinum; assay: Anti-biotic assay: M. marinum growth in broth (luminescence); details: for activity at 0.411523 µM / activity at 1.23457 µM / activity at 3.7037 µM / activity at 11.1111 µM / activity at 33.3333 µM / activity at 100 µM: 72 h; for IC50: read-out: IC50 Mm in broth (μM)
Procedure: (§1) Since fractions were not weighed individually, the injection mass was used to calculate an average mass per fraction and thus a nominal mass concentration.
Plating bacteria and compounds or fractions was performed analogously to the infection assay described above. Bacteria growth was monitored with the Agilent BioTek H1 plate reader by recording luminescence at 32 °C.
The prepared plates were sealed and stored at 4 °C overnight. On the day of the experiment, nine 10 cm Petri dishes were infected (as described before) and grouped into three pools.

[2] = system: Dictyostelium discoideum; assay: Infection assay: growth of the host amoeba D. discoideum (fluorescence) in infection; details: for activity at 0.411523 µM / activity at 1.23457 µM / activity at 3.7037 µM / activity at 11.1111 µM / activity at 33.3333 µM / activity at 100 µM: 72 h; for IC50: read-out: IC50 Dd in infection (μM)
From the text: as §1

[3] = system: Mycobacterium marinum; assay: Infection assay: intracellular M. marinum growth (luminescence) in D. discoideum; details: for activity at 0.411523 µM / activity at 1.23457 µM / activity at 3.7037 µM / activity at 11.1111 µM / activity at 33.3333 µM / activity at 100 µM: 72 h; for activity at 0.411523 µM: conc 0.411522634 uM; for activity at 1.23457 µM: conc 1.234567901 uM; for activity at 3.7037 µM: conc 3.703703704 uM; for activity at 11.1111 µM: conc 11.11111111 uM; for activity at 33.3333 µM: conc 33.33333333 uM; for activity at 100 µM: conc 100 uM; for IC50: interpolated between the two concentrations closest to residual growth 0.5, top concentration 100 μM
From the text: as §1

[4] = read-out: mean (normalised M. marinum growth, Mm in broth)
[5] = read-out: median (normalised M. marinum growth, Mm in broth)
[6] = read-out: mean normalized residual growth, Dd in infection
[7] = read-out: median normalized residual growth, Dd in infection
[8] = vehicle control set at 1, read-out: mean normalized residual growth, Mm in infection
[9] = vehicle control set at 1, read-out: median normalized residual growth, Mm in infection

| Compound | activity at 0.411523 µM [1, 4] | activity at 1.23457 µM [1, 4] | activity at 3.7037 µM [1, 4] | activity at 11.1111 µM [1, 4] | activity at 33.3333 µM [1, 4] | activity at 100 µM [1, 4] | activity at 0.411523 µM [1, 5] | activity at 1.23457 µM [1, 5] | activity at 3.7037 µM [1, 5] | activity at 11.1111 µM [1, 5] | activity at 33.3333 µM [1, 5] | activity at 100 µM [1, 5] | IC50 [1] | activity at 0.411523 µM [2, 6] | activity at 1.23457 µM [2, 6] | activity at 3.7037 µM [2, 6] | activity at 11.1111 µM [2, 6] | activity at 33.3333 µM [2, 6] | activity at 100 µM [2, 6] | activity at 0.411523 µM [2, 7] | other results |
| --- | --- | --- | --- | --- | --- | --- | --- | --- | --- | --- | --- | --- | --- | --- | --- | --- | --- | --- | --- | --- | --- |
| Oc1ccc(C=Cc2cc(O)cc3c2C(c2cc(O)cc(O)c2)C(c2ccc(O)c4c2OC(c2ccc(O)cc2O)C4c2cc(O)cc(O)c2)O3)cc1 (single isomer, unassigned; (-)) [Compound 11, (−)-Gnetuhainin M] | 99% | 108% | 110% | 88.7% | 92.2% | 86.8% | 104% | 107% | 115% | 91.1% | 96.7% | 83.5% | > 100 µM | 150% | 115% | 73.2% | 64.6% | 39.6% | 11.1% | 87.9% | activity at 1.23457 µM [2, 7]: 94.4%; activity at 3.7037 µM [2, 7]: 85.9%; activity at 11.1111 µM [2, 7]: 83%; activity at 33.3333 µM [2, 7]: 90.3%; activity at 100 µM [2, 7]: 72.8%; IC50 [2]: > 100 µM; activity at 0.411523 µM [3, 8]: 57.2%; activity at 0.411523 µM [3, 9]: 56.8%; activity at 1.23457 µM [3, 8]: 112%; activity at 1.23457 µM [3, 9]: 106%; activity at 3.7037 µM [3, 8]: 127%; activity at 3.7037 µM [3, 9]: 128%; activity at 11.1111 µM [3, 8]: 135%; activity at 11.1111 µM [3, 9]: 123%; activity at 33.3333 µM [3, 8]: 28.9%; activity at 33.3333 µM [3, 9]: 31.3%; activity at 100 µM [3, 8]: -4.28%; activity at 100 µM [3, 9]: 14.1%; IC50 [3]: 22.2 µM |
| Oc1ccc(/C=C/c2cc(O)c3c(c2)O[C@@H](c2ccc(O)cc2)[C@@H]3c2cc(O)c3c(c2)O[C@@H](c2ccc(O)cc2O)[C@H]3c2cc(O)cc(O)c2)cc1 [Compound 4, (−)-Gnetoline A] | 115% | 113% | 113% | 112% | 110% | 99.3% | 112% | 115% | 115% | 116% | 108% | 99.5% | > 100 µM | 146% | 109% | 106% | 88.5% | 79% | -10.4% | 96.5% | activity at 1.23457 µM [2, 7]: 84.4%; activity at 3.7037 µM [2, 7]: 85.1%; activity at 11.1111 µM [2, 7]: 79.5%; activity at 33.3333 µM [2, 7]: 79.5%; activity at 100 µM [2, 7]: 38.1%; IC50 [2]: 66.7 µM; activity at 0.411523 µM [3, 8]: 153%; activity at 0.411523 µM [3, 9]: 139%; activity at 1.23457 µM [3, 8]: 173%; activity at 1.23457 µM [3, 9]: 160%; activity at 3.7037 µM [3, 8]: 176%; activity at 3.7037 µM [3, 9]: 171%; activity at 11.1111 µM [3, 8]: 139%; activity at 11.1111 µM [3, 9]: 135%; activity at 33.3333 µM [3, 8]: 88.4%; activity at 33.3333 µM [3, 9]: 86.1%; activity at 100 µM [3, 8]: 12.2%; activity at 100 µM [3, 9]: 17.7%; IC50 [3]: 66.7 µM |
| Oc1ccc(/C=C/c2cc(O)c3c(c2)O[C@@H](c2ccc(O)cc2)[C@@H]3c2cc(O)c3c(c2)O[C@H](c2ccc(O)cc2O)[C@H]3c2cc(O)cc(O)c2)cc1 [Compound 5, (−)-Latifolol] | 107% | 108% | 104% | 114% | 95.8% | 91% | 106% | 108% | 107% | 116% | 102% | 102% | > 100 µM | 112% | 85.8% | 91.4% | 75.1% | 61% | -3.13% | 93.8% | activity at 1.23457 µM [2, 7]: 81.7%; activity at 3.7037 µM [2, 7]: 79.8%; activity at 11.1111 µM [2, 7]: 74.5%; activity at 33.3333 µM [2, 7]: 69%; activity at 100 µM [2, 7]: 32.8%; IC50 [2]: 66.7 µM; activity at 0.411523 µM [3, 8]: 116%; activity at 0.411523 µM [3, 9]: 112%; activity at 1.23457 µM [3, 8]: 160%; activity at 1.23457 µM [3, 9]: 158%; activity at 3.7037 µM [3, 8]: 192%; activity at 3.7037 µM [3, 9]: 178%; activity at 11.1111 µM [3, 8]: 136%; activity at 11.1111 µM [3, 9]: 125%; activity at 33.3333 µM [3, 8]: 81.5%; activity at 33.3333 µM [3, 9]: 81.6%; activity at 100 µM [3, 8]: 2.94%; activity at 100 µM [3, 9]: 7.57%; IC50 [3]: 66.7 µM |
| Oc1ccc(/C=C/c2cc(O)c3c(c2)O[C@@H](c2ccc(O)cc2)[C@@H]3c2cc(O)c3c(c2)O[C@H](c2ccc(O)cc2)[C@H]3c2cc(O)cc(O)c2)cc1 [Compound 6, (−)-Gnetin E] | 134% | 114% | 113% | 114% | 118% | 110% | 135% | 109% | 114% | 114% | 119% | 110% | > 100 µM | 119% | 116% | 112% | 114% | 95.3% | 35.6% | 93.6% | activity at 1.23457 µM [2, 7]: 89.2%; activity at 3.7037 µM [2, 7]: 92%; activity at 11.1111 µM [2, 7]: 88.5%; activity at 33.3333 µM [2, 7]: 86.1%; activity at 100 µM [2, 7]: 56.8%; IC50 [2]: > 100 µM; activity at 0.411523 µM [3, 8]: 165%; activity at 0.411523 µM [3, 9]: 154%; activity at 1.23457 µM [3, 8]: 202%; activity at 1.23457 µM [3, 9]: 184%; activity at 3.7037 µM [3, 8]: 196%; activity at 3.7037 µM [3, 9]: 172%; activity at 11.1111 µM [3, 8]: 169%; activity at 11.1111 µM [3, 9]: 155%; activity at 33.3333 µM [3, 8]: 98.2%; activity at 33.3333 µM [3, 9]: 95.4%; activity at 100 µM [3, 8]: 46.3%; activity at 100 µM [3, 9]: 49.1%; IC50 [3]: 66.7 µM |
